Measurements reported in patent US20080293916A1, “Hla-Binding Peptide, and Dna Fragment and Recombinant Vector Coding for Said Hla-Binding Peptide” (NEC CORPORATION, priority 2004, published 2008).
Where two headings read alike, the source gives them in different places. Ends that are not written are not given here.

How the values were obtained:
[1] = target: HLA-A2 molecule, product of the HLA-A*0201 gene (Homo sapiens, UniProt P04439, D140Y/D185E/D98H/E176V/E277Q/G131W/G231S/I119V/I121R/I166T/I218V/L300P/L318F/N151K/N90K/P208A/P217A/Q86G/Q94H/R138H/R169H/T345S); experiment: Experiment of binding peptide to HLA-A2 molecule (JY cells, flow cytometer)
Description: (§1) <Experiment of Binding Peptide to HLA-A2 Molecule>
(§2) JY cells were first exposed to acidic conditions at a pH of 3.8 for 30 seconds, thus dissociating and removing a light chain β2m and an endogenous peptide, which were noncovalently associated with the HLA-A*0201 molecule. After neutralization, a reassociation experiment was carried out.
(§3) The above-mentioned JY cells and the purified β2m were added to stepped dilutions of peptide for which the binding ability would be measured, and incubation was carried out on ice for 4 hours. HLA-A*0201 molecules that had reassociated up to this point were stained using the associating type specific fluorescently-labeled monoclonal antibody BB7.2.
(§4) Subsequently, the amount of fluorescence per cell was measured using a flow cytometer and a dissociation constant Kd value in molar concentration was calculated by a published method (Udaka et al., Immunogenetics, 51, 816-828, 2000).

[2] = test system: human HLA-A type molecule; experiment: Binding experiment, result stated in words for HLA-A type molecule
Description: <Experiment of Binding Peptide to HLA-A24 Molecule>
The ability of a peptide to bind to an HLA-A24 molecule, which is a product of the HLA-A*2402 gene, was measured using C1R-A24 cells expressing the HLA-A24 molecule (cells prepared by Professor Masafumi Takiguchi, Kumamoto University being supplied with permission by Assistant Professor Masaki Yasukawa, Ehime University).
C1R-A24 cells were first exposed to acidic conditions at a pH of 3.3 for 30 seconds, thus dissociating and removing a light chain β2m, which is associated with HLA class I molecules in common, and an endogenous peptide originally bound to the HLA-A*2402 molecule. After neutralization, purified β2m was added to C1R-A24 cells, the obtained product was added to serial dilutions of a peptide, and incubated on ice for 4 hours. Staining was carried out using fluorescently labeled monoclonal antibody 17A12, which recognizes association (MHC-pep) of the three members, that is, HLA-A*2402 molecule, the peptide, and β2m, which had reassociated during the incubation.
Subsequently, the MHC-pep count per C1R-A24 cell (proportional to the strength of fluorescence of the above-mentioned fluorescent antibody) was quantitatively measured using an FACScan fluorescence-activated cell sorter (Becton Dickinson Biosciences). A binding dissociation constant Kd value between the HLA-A24 molecule and the peptide was calculated from the average strength of fluorescence per cell by a published method (Udaka et al., Immunogenetics, 51, 816-828, 2000).
as §1, §2, §3, §4

[3] = target: T1, HLA-A24 molecule (product of the HLA-A*2402 gene) on C1R-A24 cells (human); experiment: reassociation on acid-stripped C1R-A24 cells with added beta2m, mAb 17A12 staining, flow cytometry
T1 construct: MHC class I molecule on cells; Emptied by acid treatment (pH 3.3, 30 s), then reassociated with added purified beta2m and the test peptide; also called HLA-A*2402 molecule; human HLA-A24 molecule

[4] = target: T2, HLA-A2 molecule (product of the HLA-A*0201 gene) on JY cells (human); experiment: reassociation on acid-stripped JY cells with added beta2m, mAb BB7.2 staining, flow cytometry
T2 construct: MHC class I molecule on cells; Emptied by acid treatment (pH 3.8, 30 s), then reassociated with added purified beta2m and the test peptide; also called HLA-A*0201 molecule; human HLA-A2 molecule

## ALLLRTPYS [compound 38]
[1]
  Kd: 4.69 µM

## ALLPAVPSL [compound 2]
[2]
  binding to a human HLA-A type molecule (in words): experimentally confirmed to bind

## ALLPAVPSL [compound 33]
[1]
  Kd: 0.0143 µM

## DFKDCERRF [compound 1]
[2]
  binding to a human HLA-A type molecule (in words): experimentally confirmed to bind

## DVRDLNALL [compound 5]
[2]
  binding to a human HLA-A type molecule (in words): experimentally confirmed to bind

## GVFRGIQDV [compound 51]
[1]
  Kd: 1.41 µM

## ILCGAQYRI [compound 14]
[2]
  binding to a human HLA-A type molecule (in words): experimentally confirmed to bind

## ILCGAQYRI [compound 40]
[1]
  Kd: 7.51 µM

## NLGATLKGV [compound 31]
[1]
  Kd: 8.17 µM

## NLYQMTSQL [compound 29]
[2]
  binding to a human HLA-A type molecule (in words): experimentally confirmed to bind

## NLYQMTSQL [compound 44]
[1]
  Kd: 1.49 µM

## NMTKLQLAL [compound 10]
[2]
  binding to a human HLA-A type molecule (in words): experimentally confirmed to bind

## NMTKLQLAL [compound 49]
[1]
  Kd: 3.71 µM

## PPPPPHSFI [compound 7]
[2]
  binding to a human HLA-A type molecule (in words): experimentally confirmed to bind

## PPPPPPHSF [compound 4]
[2]
  binding to a human HLA-A type molecule (in words): experimentally confirmed to bind

## QQYSVPPPV [compound 39]
[1]
  Kd: 3.24 µM

## QYRIHTHGV [compound 30]
[2]
  binding to a human HLA-A type molecule (in words): experimentally confirmed to bind

## SFIKQEPSW [compound 6]
[2]
  binding to a human HLA-A type molecule (in words): experimentally confirmed to bind

## VAAGSSSSV [compound 43]
[1]; −log Kd value (Kd in molar concentration), HLA-A2, JY cells, on ice 4 hours, read-out: BINDING EXPERIMENT DATA (converted)
  Kd: 9.95 µM

## YRIHTHGVF [compound 3]
[2]
  binding to a human HLA-A type molecule (in words): experimentally confirmed to bind

B1: HLA-A24-binding peptide of SEQ ID NO 30 (WT1 peptide, SEQ NAME 285) (peptide)
peptide: QYRIHTHGV
[3]
  -log Kd: 5.62 -log Kd (Kd in molar concentration)

B2: HLA-A24-binding peptide of SEQ ID NO 29 (WT1 peptide, SEQ NAME 225) (peptide)
peptide: NLYQMTSQL
[3]
  -log Kd: 4.38 -log Kd (Kd in molar concentration)

B3: HLA-A24-binding peptide of SEQ ID NO 2 (WT1 peptide, SEQ NAME 10) (peptide)
peptide: ALLPAVPSL
[3]
  -log Kd: 9.16 -log Kd (Kd in molar concentration)

B4: HLA-A24-binding peptide of SEQ ID NO 4 (WT1 peptide, SEQ NAME 63) (peptide)
peptide: PPPPPPHSF
[3]
  -log Kd: 4.4 -log Kd (Kd in molar concentration)

B5: HLA-A2-binding peptide of SEQ ID NO 31 (WT1 peptide, SEQ NAME 242) (peptide)
peptide: NLGATLKGV
[4]
  -log Kd: 5.09 -log Kd (Kd in molar concentration)

B6: HLA-A24-binding peptide of SEQ ID NO 3 (WT1 peptide, SEQ NAME 286) (peptide)
peptide: YRIHTHGVF
[3]
  -log Kd: 4.39 -log Kd (Kd in molar concentration)

B7: HLA-A24-binding peptide of SEQ ID NO 10 (WT1 peptide, SEQ NAME 441) (peptide)
peptide: NMTKLQLAL
notes: also called NMTKLQLAL
[3]
  -log Kd: 6.38 -log Kd (Kd in molar concentration)

B8: HLA-A2-binding peptide of SEQ ID NO 51 (WT1 peptide, SEQ NAME 292) (peptide)
peptide: GVFRGIQDV
[4]
  -log Kd: 5.85 -log Kd (Kd in molar concentration)

B9: HLA-A2-binding peptide of SEQ ID NO 40 (WT1 peptide, SEQ NAME 280) (peptide)
peptide: ILCGAQYRI
notes: also called ILOGAQYRI
[4]
  -log Kd: 5.12 -log Kd (Kd in molar concentration)

B10: HLA-A2-binding peptide of SEQ ID NO 39 (WT1 peptide, SEQ NAME 191) (peptide)
peptide: QQYSVPPPV
[4]
  -log Kd: 5.49 -log Kd (Kd in molar concentration)

B11: HLA-A24-binding peptide of SEQ ID NO 7 (WT1 peptide, SEQ NAME 64) (peptide)
peptide: PPPPPHSFI
[3]
  -log Kd: 4.4 -log Kd (Kd in molar concentration)

B12: HLA-A2-binding peptide of SEQ ID NO 33 (WT1 peptide, SEQ NAME 10) (peptide)
peptide: ALLPAVPSL
[4]
  -log Kd: 7.84 -log Kd (Kd in molar concentration)

B13: HLA-A24-binding peptide of SEQ ID NO 6 (WT1 peptide, SEQ NAME 70) (peptide)
peptide: SFIKQEPSW
[3]
  -log Kd: 8.16 -log Kd (Kd in molar concentration)

B14: HLA-A2-binding peptide of SEQ ID NO 44 (WT1 peptide, SEQ NAME 225) (peptide)
peptide: NLYQMTSQL
[4]
  -log Kd: 5.83 -log Kd (Kd in molar concentration)

B15: HLA-A2-binding peptide of SEQ ID NO 43 (WT1 peptide, SEQ NAME 250) (peptide)
peptide: VAAGSSSSV
[4]
  -log Kd: 5 -log Kd (Kd in molar concentration)

B16: HLA-A24-binding peptide of SEQ ID NO 5 (WT1 peptide, SEQ NAME 4) (peptide)
peptide: DVRDLNALL
[3]
  -log Kd: 4.45 -log Kd (Kd in molar concentration)

B17: HLA-A24-binding peptide of SEQ ID NO 14 (WT1 peptide, SEQ NAME 280) (peptide)
peptide: ILCGAQYRI
notes: also called ILOGAQYRI
[3]
  -log Kd: 5.9 -log Kd (Kd in molar concentration)

B18: HLA-A2-binding peptide of SEQ ID NO 38 (WT1 peptide, SEQ NAME 214) (peptide)
peptide: ALLLRTPYS
[4]
  -log Kd: 5.33 -log Kd (Kd in molar concentration)

B19: HLA-A2-binding peptide of SEQ ID NO 49 (WT1 peptide, SEQ NAME 441) (peptide)
peptide: NMTKLQLAL
notes: also called NMTKLQLAL
[4]
  -log Kd: 5.43 -log Kd (Kd in molar concentration)

B20: HLA-A24-binding peptide of SEQ ID NO 1 (WT1 peptide, SEQ NAME 356) (peptide)
peptide: DFKDCERRF
notes: Synthesised by the Fmoc solid-phase method, purity 95% or higher
[3]
  -log Kd: 4.4 -log Kd (Kd in molar concentration)
